The text below walks through data of patent US7638269B2, “Viral capsid assembly intermediates and methods of production” (priority 1997, dated 2009).

“Also recorded” adds a separate entry of the source.

Data set [1] has as its system immature HIV capsids (Gag Pr55). The experiment in a line: Cell-free translation and assembly of HIV capsids in wheat germ extract programmed with Gag transcript. The class given is biochemical. The settings on record: for Material in fractions corresponding to Final Capsid / Material in fractions corresponding to complex A / Material in fractions corresponding to complexes B/C: velocity sedimentation, apyrase added post-translationally, detergent cotranslationally. The method, then:
Translation of the transcription products was carried out in wheat germ extract containing ^35S methionine (ICN Pharmaceuticals, Costa Mesa, Calif.). The wheat germ extract was prepared as described by Erickson and Blobel (1983) as modified below. Reactions were performed as previously described (Lingappa, J. R., et al., J. Cell. Biol. (1984) 125:99-111), except for modifications noted below.
A 25 microliter wheat germ transcription/translation reaction mixture contained: 5 microliters Gag transcript (prepared as described in transcription methods), 5 microliters wheat germ extract (prepared as described in wheat germ preparation; preferably using the high speed supernatant detailed in Example 4), 5 microliters 35-S Energy Mix 5× stock (Sigma Chemical Co., St. Louis, Mo.), 2.5 microliters Compensating Buffer (Sigma Chemical Co.), 1.0 microliter 40 mM MgAcetate (Sigma Chemical Co.), 2.0 microliters […] Myristoyl CoA (made up in 20 mM Tris Acetate, pH 7.6; Sigma Chemical Co.), 3.75 microliters 20 mM Tris Acetate buffer, […] (U.S. Biochemicals; Cleveland, Ohio), 0.25 microliter Creatine Kinase (4 mg/ml stock in 50% glycerol, 10 mM Tris Acetate; Boehringer Mannheim, Indianapolis, Ind.), 0.25 microliter bovine tRNA (10 mg/ml stock; Sigma Chemical Co.), and 0.25 microliter RNAse Inhibitor (20 units/50; Promega).
Myristoyl coenzyme A (MCoA; Sigma, St. Louis, Mo.) was added at a concentration of 10 micromolar at the start of translation when indicated. Translation reactions ranged in volume from 20 to 100 microliters and were incubated at 25° C. for 150 min. Some reactions were adjusted to a final concentration of the following agents at tunes indicated in the figures and specification: 0.2 μM emetine (Sigma); 1.0 units apyrase (Sigma) per mL translation; 0.002%, 0.1%, or 1.0% “NIKKOL”. Cell-free translation and assembly reactions were also carried out successfully in rabbit reticulocyte lysate prepared as described previously (Merrick, W. C., Methods Enzymol. 101:606-615 (1983)) or obtained from commercial suppliers (Promega, Madison, Wis.). In pulse-chase experiments, translation reactions contained ^35S cysteine (Amersham Life Sciences, Cleveland, Ohio) for radiolabeling. After 4 min translation reaction time, 3 mM unlabeled cysteine was added, and the reaction was continued at 25° C. for variable chase times as indicated in the experiments described herein.
Where indicated, wheat germ extract prepared as described in Example 1 was centrifuged at either 50,000 rpm for 21 min or 100,000 rpm for 30 min in a TLA 100 rotor (Beckman Instruments, Palo Alto, Calif.). The supernatant (high-speed supernatant, HSS) of the 50,000 rpm spin was used for cell-free translation and assembly reactions. The pellet of the 100,000 rpm spin (high speed pellet, HSP) was resuspended at a 5× concentration in buffer (25 mM Hepes pH 7.4, 4 mM MgAc, 100 mM KAc, 0.25M sucrose). Wheat germ extract adjusted to contain a concentration 0.5% “NIKKOL” was subjected to the same ultracentrifugation in parallel to generate the detergent treated high-speed pellet (HSPd). This pellet was washed twice with […] of the above non-detergent buffer in order to remove traces of detergent, and then resuspended as described above. Following treatment with emetine at […], 1.8 μL of HSP or HSPd was added to the […] cell-free reactions programmed with HSS. Control reactions were treated with the same volume of buffer at the same time. At the end of the 150 min incubation, reactions were separated into soluble and particulate fractions and analyzed as described above.
The cell-free translation/assembly system of the invention contains the components described in Part A, above. Example 1 provides details of an exemplary system derived from wheatgerm extract, which is capable of supporting translation and assembly of HIV capsids. Briefly, protein synthesis was initiated in the cell-free translation/assembly system by adding an mRNA that encodes Gag Pr55 protein. […]

The test system of data set [2] is HBV capsids (HBV core). The class given is biochemical.
Sequence of HBV capsids (HBV core) (P03146 whole entry): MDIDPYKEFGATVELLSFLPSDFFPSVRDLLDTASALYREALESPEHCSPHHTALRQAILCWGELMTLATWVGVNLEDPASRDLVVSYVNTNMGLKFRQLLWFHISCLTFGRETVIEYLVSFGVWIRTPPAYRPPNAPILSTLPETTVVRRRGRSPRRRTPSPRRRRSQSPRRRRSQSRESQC
Method: The radiolabeled translation products were analyzed for formation of HBV core multimers by rae sedimentation on 10-50% sucrose gradients at 200,000 g for 1 h. Following fractionation of the gradients, the migration of radiolabeled core proteins was determined using SDS-PAGE, Coomassie staining, and autoradiography. Under these conditions, unlabeled protein standards of less than 12S, such as catalase, migrated in the first three fractions. […] The first region, at the top of the gradient (7) corresponds to the position of monomeric and small oligomeric core polypeptides, while the second region, in the middle of the gradient (M), corresponds to the position of authentic capsids. The third region, in the pellet (P), represents very high molecular weight structures. The possibility that either the pellet or the middle fraction consists of completed chains not yet released from ribosomes was ruled out by treatment of the translation products after completion of synthesis with EDTA, which is known to disassemble ribosomes (Sabatini et al., 1966).
To address this, pellet material was isolated by fractionating the products of a 30-min translation of HBV core on a sucrose gradient and resuspending the pellet in buffer. The resuspended pellet was divided into equal aliquots and treated either with aphyase or with buffer for 90 min at 24° C.
Data set [3] has as its system HIV-1 particle formation. The class given is cell-based. The settings on record: Cos-1 cells. The method, then:
Cos-1 cells were transfected using Gag expression plasmids pCMVRev and PSVGagRRE-R described in Simon et al, J. Virology, (1997) 71:1013-18. HP68 plasmids for mammalian expression were constructed by using PCR to insert the coding regions for WGHP68, amino acids 1-378, Nhe1/Xba1 of pCDNA 3.1 (Invitrogen). Coding regions of all constructs were sequenced. Cells were transfected using Gibco Lipofectamine (Cos-1) or Lipofectamine Plus (293T). All transfections used a constant amount of DNA (18 μg per 60 mm dish). Medium was changed 24 hours after transfection and harvest was performed 28 or 60 hours after transfection for immunofluorescence and immunoblotting respectively. For immunofluorescence, cells were fixed in paraformaldehyde, permeabilized with 1% triton, and incubated with mouse HIV-1 Gag antibody (1:50) and affinity-purified HuHP68 antiserum (1:2000), followed by Cy3- and Cy 2-coupled secondary (Jackson) (1:200). 178 cells were quantitated. For immunoblotting in FIG. 13 rat IgG was added to medium as a tracer at 10 μg/ml at the time of harvest, and cells were harvested in SDS sample buffer with boiling. For quantitation of immunoblotts, bands were compared to an immunoblot standard curve generated with known quantities of sample. […]

The mark [4] stands for this setting: emetine added after 50 min, incubated to 150 min.

As for `Nc1ncnc2c1ncn2[C@@H]1O[C@H](COP(=O)(O)OP(=O)(O)NP(=O)(O)O)[C@@H](O)[C@H]1O` [AMP-PNP], the “reversal of the effect of ATP depletion on assembly” value in data set [1] (added after apyrase treatment) is “not reversed”.
With `CC[C@H]1CN2CCc3cc(OC)c(OC)cc3[C@@H]2C[C@@H]1C[C@H]1NCCc2cc(OC)c(OC)cc21` [emetine], in data set [1] (setting [4]), the “proportion of capsid assembly” value is listed as “comparable to that of the untreated control” and the “total Pr55 synthesis, of the control” value was found to be 60%. Also, the “effect on treatment of the isolated pellet with energy substrates or apyrase” value in data set [2] is on record as “did not affect the results”.
In the case of `CCCCCCCCCCCCOCCOCCOCCOCCOCCOCCOCCOCCO` [NIKKOL, octaethyleneglycol mono n-dodecyl ether], the capsid assembly entry in data set [1] (0.002% added at start of translation, 10 μM MCoA) is reported as “This effect was not observed”. In data set [1] (0.1% added at start of translation, 10 μM MCoA), the capsid assembly result is on record as “largely abolished capsid assembly”. In addition, the amount of assembly result in data set [1] (added after completion of the 150 min assembly reaction, up to 1.0%) is given as “did not diminish the amount of assembly”. Besides, the Gag polypeptide synthesis result in data set [1] (concentration of 0.1%) is “had no effect on Gag polypeptide synthesis”. In data set [1] (emetine and 0.1% NIKKOL, post-translational phase 50 min into the reaction), the assembly result is “assembly was dramatically reduced”. In data set [1], the “Material in fractions corresponding to Final Capsid” value is on record as 189, the “Material in fractions corresponding to complex A” value was determined as 2656 and the “Material in fractions corresponding to complexes B/C” value is on record as 6130.
Turning to `CCCCCCCCCCCCCC(=O)SCCNC(=O)CCNC(=O)[C@H](O)C(C)(C)COP(=O)(O)OP(=O)(O)OC[C@H]1O[C@@H](n2cnc3c(N)ncnc32)[C@H](O)[C@@H]1OP(=O)(O)O` [MCoA, Myristoyl Coenzyme A], the “total amount of Pr55 synthesized” value in data set [1] (10 μM MCoA) is reported as “had no effect on the total amount of Pr55 synthesized”. Also, the assembly into capsids result in data set [1] (10 μM MCoA added at 90 min, post-translational phase) is recorded as “very little assembly occurred”.
With apyrase, the “amount of assembly (capsid stability)” value in data set [1] (apyrase added after capsid assembly was completed) is given as “had no effect on the amount of assembly”. Further, the “total amount of Pr55 synthesis” value in data set [1] (apyrase added after emetine at 50 min) is “did not change the total amount of Pr55 synthesis”. For the same molecule, the capsid assembly entry in data set [1] (apyrase added immediately after 0.2 μM emetine at 50 min, 150 min) was “dramatic reduction in capsid assembly”. Moreover, in data set [1], the “Material in fractions corresponding to Final Capsid” value came to 133, the “Material in fractions corresponding to complex A” value is given as 2851 and the “Material in fractions corresponding to complexes B/C” value worked out at 5999. Besides, the “release of capsids from the isolated pellet” value in data set [2] (resuspended pellet of a 30-min translation, 90 min at 24° C.) is reported as “results in release of completed capsids from the pellet”.
Consider `O=C(O)CN(CCN(CC(=O)O)CC(=O)O)CC(=O)O` [EDTA], for which the “distribution of labeled core polypeptides in top, middle and pellet fractions” value in data set [2] (treatment of translation products after completion of synthesis, 10 mM) is “largely unaffected; also recorded: had no effect”.

B1: WGHP68-Tr1: 379 amino acid truncated form of wheat germ HP68, stop codon before the second nucleotide-binding domain (protein)
chain: MADRLTRIAIVSEDKCKPKKCRQECKKSCPVVKTGKLCIEVSPVAKLAFISEELCIGCGICVKKCPFDAIEIINLPKDLEKDTTHRYGPNTFKLHRLPVPRPGQVLGLVGTNGIGKSTALKVLAGKLKPNLGRFKNPPDWQEILTYFRGSELQNYFTRILEDNLKAIIKPQYVDHIPKAVQGNVGQVLEQKDERDMKNELCVDLELNQVIDRNVGDLSGGELQRFAIAVVAVQSAEIYMFDEPSSYLDVKQRLKAARVIRSLLRSNSYVIVVEHDLSVLDYLSDFICCLYGKPGAYGVVTLPFSVREGINIFLAGFVPTENLRFRDESLTFKIAETQESAEEVATYQRYKYPTMSKTQGNFKLSVVEGEFTDSQIVVM
For the molecule B1, in data set [3], the “Gag and actin levels in cell lysates” value is “remained unchanged”; the toxicity to cells result was “not toxic to cells”.
